According to patent US20140228349A1, “5,7-SUBSTITUTED-IMIDAZO[1,2-C]PYRIMIDINES” (Array BioPharma Inc., priority 2011, published 2014):
pIC50: −log10 of the molar value.

Assays:
Type in all cases: biochemical
JAK3 = molecular target: T1, JAK3 (Homo sapiens, UniProt P52333); assay: JAK3 Inhibition Assay (Omnia kinase fluorescence peptide substrate); details: averaged IC50 ranges; 10 μM (Km app) or 1 mM ATP, 2.5 nM JAK3
T1 construct: purchased Invitrogen Corporation, Carlsbad, Calif; IVGN PV4080
T1 sequence (P52333 1-1124): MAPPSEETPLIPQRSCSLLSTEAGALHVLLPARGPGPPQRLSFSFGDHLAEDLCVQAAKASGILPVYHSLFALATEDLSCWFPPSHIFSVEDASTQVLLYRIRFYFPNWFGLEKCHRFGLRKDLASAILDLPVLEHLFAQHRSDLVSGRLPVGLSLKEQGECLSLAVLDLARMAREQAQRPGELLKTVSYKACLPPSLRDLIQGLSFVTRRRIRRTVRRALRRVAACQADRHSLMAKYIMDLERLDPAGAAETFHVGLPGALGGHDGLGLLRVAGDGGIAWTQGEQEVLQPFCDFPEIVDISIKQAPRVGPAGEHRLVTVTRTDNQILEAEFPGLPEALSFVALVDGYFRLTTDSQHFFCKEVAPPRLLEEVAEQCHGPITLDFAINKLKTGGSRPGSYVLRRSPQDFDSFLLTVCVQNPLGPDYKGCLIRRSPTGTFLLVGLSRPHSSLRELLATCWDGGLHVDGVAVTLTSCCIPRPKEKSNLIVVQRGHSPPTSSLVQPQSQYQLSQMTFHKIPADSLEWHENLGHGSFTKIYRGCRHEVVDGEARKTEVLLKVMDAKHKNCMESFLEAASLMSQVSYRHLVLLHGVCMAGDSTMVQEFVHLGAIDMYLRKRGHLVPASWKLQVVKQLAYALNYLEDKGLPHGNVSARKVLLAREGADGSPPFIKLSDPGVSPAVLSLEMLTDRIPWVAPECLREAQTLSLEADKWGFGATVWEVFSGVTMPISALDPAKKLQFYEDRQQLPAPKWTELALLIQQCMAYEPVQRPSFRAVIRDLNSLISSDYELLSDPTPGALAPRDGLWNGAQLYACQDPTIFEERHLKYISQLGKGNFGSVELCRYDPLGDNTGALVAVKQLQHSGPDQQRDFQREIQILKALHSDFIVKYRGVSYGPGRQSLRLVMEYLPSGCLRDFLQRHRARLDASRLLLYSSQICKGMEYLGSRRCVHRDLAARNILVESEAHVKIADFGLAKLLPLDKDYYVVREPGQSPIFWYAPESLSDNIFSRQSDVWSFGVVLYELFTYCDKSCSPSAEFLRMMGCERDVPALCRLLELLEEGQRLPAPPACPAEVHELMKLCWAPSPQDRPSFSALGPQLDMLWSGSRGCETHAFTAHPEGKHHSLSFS
In short: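 IC50 is the concentration giving 50 percent of control on a 4-parameter logistic fit of 10-point, 3-fold dilutions from a 10 μM top dose, at 2% final DMSO. Kinetic Sox fluorescence (360/485 nm) was monitored every 50 s for 45 min. Mix: JAK3 2.5 nM, Omnia Y7 peptide 10 μM, ATP 10 μM (Km app) or 1 mM, in HEPES pH 7.4 buffer with MgCl2, Triton X-100 and DTT.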

Human Tyk2 kinase domain = molecular target: T2, Human Tyk2 kinase domain (Homo sapiens, UniProt P29597); assay: Tyk2 Inhibition Assay (Omnia kinase fluorescence peptide substrate); details: averaged IC50 ranges; 10 μM (Km app) or 1 mM ATP, 2 nM Tyk2
T2 construct: comprising amino acids 886 to 1187; His10 (10 histidine residues) (C, cleaved yes); made in house
T2 sequence (P29597 886-1187): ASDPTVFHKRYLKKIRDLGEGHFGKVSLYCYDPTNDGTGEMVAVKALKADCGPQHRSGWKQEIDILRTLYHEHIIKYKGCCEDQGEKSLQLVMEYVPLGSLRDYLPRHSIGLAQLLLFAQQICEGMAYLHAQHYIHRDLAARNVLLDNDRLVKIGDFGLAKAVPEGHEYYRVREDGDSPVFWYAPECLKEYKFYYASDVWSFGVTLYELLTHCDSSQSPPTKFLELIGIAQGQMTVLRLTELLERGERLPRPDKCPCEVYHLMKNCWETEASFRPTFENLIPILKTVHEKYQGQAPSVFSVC
In short: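 Phosphorylation of 8 μM Omnia Y12 peptide followed kinetically by Sox fluorescence, ex 360/em 485 nm, every 50 s for 45 min. Enzyme: 2 nM Tyk2 kinase domain (aa 886–1187, His tag removed); ATP at 10 μM (Km app) or 1 mM; buffer HEPES pH 7.4 with MgCl2, Triton X-100, DTT. 10-point curves up to 10 μM, IC50 from 4-parameter logistic fit.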

JAK2 = molecular target: T3, JAK2 (Homo sapiens, UniProt O60674); assay: JAK2 Inhibition Assay (Omnia kinase fluorescence peptide substrate); details: averaged IC50 ranges; 25 μM (Km app) or 1 mM ATP, 5 nM JAK2
T3 construct: purchased Invitrogen Corporation, Carlsbad, Calif; IVGN PV4288

JAK1 = molecular target: T4, JAK1 (Homo sapiens, UniProt P23458); assay: JAK1 Inhibition Assay (Omnia kinase fluorescence peptide substrate); details: averaged IC50 ranges; 40 μM (Km app) or 1 mM ATP, 15 nM JAK1
T4 construct: purchased Invitrogen Corporation, Carlsbad, Calif; IVGN PV4775
In short: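 15 nM JAK1, 8 μM Omnia Y12 peptide, 40 μM (Km app) or 1 mM ATP; 25 mM HEPES pH 7.4, 10 mM MgCl2, 2% DMSO. Fluorescence (ex 360/em 485 nm) read every 50 s over 45 min. IC50 by 4-parameter fit of percent of control, top dose 10 μM.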

T3 sequence (O60674 whole entry): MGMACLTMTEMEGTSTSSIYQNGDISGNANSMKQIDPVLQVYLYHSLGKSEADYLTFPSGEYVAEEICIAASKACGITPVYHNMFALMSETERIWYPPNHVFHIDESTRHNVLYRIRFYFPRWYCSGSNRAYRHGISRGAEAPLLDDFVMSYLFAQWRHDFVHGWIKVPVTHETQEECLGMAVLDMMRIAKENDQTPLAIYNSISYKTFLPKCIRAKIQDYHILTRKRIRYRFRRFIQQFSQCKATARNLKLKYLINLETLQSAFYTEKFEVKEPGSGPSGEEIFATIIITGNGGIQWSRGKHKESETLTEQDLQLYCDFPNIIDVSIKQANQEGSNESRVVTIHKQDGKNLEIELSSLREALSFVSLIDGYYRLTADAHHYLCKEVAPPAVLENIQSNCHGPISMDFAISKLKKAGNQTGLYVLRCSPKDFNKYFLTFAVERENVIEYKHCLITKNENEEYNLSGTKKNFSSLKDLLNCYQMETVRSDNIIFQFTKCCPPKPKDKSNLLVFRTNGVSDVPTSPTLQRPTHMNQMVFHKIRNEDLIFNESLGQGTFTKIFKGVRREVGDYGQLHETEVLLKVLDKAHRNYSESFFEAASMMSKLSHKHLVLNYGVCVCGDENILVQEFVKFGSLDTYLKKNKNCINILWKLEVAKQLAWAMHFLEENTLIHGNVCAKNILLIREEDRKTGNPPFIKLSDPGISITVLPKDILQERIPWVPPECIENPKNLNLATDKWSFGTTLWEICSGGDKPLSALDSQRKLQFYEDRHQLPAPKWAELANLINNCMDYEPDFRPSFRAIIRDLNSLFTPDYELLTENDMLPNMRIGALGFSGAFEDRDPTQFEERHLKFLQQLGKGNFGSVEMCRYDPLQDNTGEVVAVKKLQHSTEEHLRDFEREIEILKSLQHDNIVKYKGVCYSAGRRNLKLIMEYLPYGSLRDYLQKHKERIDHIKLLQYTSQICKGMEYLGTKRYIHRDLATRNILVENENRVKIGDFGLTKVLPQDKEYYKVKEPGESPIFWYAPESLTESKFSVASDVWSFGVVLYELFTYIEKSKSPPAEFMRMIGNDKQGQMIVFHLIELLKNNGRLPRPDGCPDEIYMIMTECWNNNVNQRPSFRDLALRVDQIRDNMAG
T4 sequence (P23458 whole entry): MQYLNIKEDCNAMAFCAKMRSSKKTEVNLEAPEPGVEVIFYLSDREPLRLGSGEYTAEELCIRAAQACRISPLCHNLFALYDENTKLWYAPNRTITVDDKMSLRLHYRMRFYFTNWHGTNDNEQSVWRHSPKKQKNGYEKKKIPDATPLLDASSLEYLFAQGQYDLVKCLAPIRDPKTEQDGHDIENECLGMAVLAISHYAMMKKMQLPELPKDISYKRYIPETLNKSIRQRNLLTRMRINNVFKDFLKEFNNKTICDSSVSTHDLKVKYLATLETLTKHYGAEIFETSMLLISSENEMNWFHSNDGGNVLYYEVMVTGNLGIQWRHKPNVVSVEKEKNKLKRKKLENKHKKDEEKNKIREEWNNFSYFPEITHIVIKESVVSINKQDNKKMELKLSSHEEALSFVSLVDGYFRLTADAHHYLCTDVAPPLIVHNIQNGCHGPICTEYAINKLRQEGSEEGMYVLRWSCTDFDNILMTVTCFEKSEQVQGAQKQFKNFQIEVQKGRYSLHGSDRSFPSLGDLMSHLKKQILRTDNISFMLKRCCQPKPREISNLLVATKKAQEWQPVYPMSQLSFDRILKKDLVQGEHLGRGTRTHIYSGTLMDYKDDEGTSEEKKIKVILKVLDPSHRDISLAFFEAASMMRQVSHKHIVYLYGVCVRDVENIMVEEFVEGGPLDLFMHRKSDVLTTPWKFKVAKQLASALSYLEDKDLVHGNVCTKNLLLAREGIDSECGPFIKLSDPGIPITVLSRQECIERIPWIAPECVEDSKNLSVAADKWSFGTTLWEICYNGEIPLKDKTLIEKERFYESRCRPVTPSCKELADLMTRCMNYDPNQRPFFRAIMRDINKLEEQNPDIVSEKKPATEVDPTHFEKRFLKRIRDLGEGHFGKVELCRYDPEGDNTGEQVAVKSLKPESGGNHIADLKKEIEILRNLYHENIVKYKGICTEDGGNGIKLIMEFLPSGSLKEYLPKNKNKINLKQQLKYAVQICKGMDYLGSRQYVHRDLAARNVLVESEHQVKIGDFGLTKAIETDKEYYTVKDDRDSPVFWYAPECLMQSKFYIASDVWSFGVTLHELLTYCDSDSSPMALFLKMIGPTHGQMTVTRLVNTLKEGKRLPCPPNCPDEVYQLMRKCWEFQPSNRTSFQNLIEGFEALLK

| SMILES | pIC50 (JAK3) | pIC50 (Human Tyk2 kinase domain) | pIC50 (JAK2) | pIC50 (JAK1) |
| --- | --- | --- | --- | --- |
| Cc1cc(-c2cc3nccn3c(-c3cnn(C4(CCF)CN(S(=O)(=O)C(F)(F)F)C4)c3)n2)[nH]n1 [Example 58, 5-(1-(3-(2-fluoroethyl)-1-((trifluoromethyl)sulfonyl)azetidin-3-yl)-1H-pyrazol-4-yl)-7-(3-methyl-1H-pyrazol-5-yl)imidazo[1,2-c]pyrimidine] | 6.00 to 7.00 | > 8.00 | 7.00 to 8.00 | 6.00 to 7.00 |
| CC(=O)CC(C1CC1)n1cc(-c2nc(-c3cnn(C)c3)cc3nccn23)cn1 (stereo not shown) [Example 61, 4-cyclopropyl-4-(4-(7-(1-methyl-1H-pyrazol-4-yl)imidazo[1,2-c]pyrimidin-5-yl)-1H-pyrazol-1-yl)butan-2-one] | < 6.00 | 6.00 to 7.00 | 6.00 to 7.00 | < 6.00 |
| CSCCC(C1CC1)n1cc(-c2nc(-c3cnn(C)c3)cc3nccn23)cn1 (stereo not shown) [Example 62, 5-(1-(1-cyclopropyl-3-(methylthio)propyl)-1H-pyrazol-4-yl)-7-(1-methyl-1H-pyrazol-4-yl)imidazo[1,2-c]pyrimidine] | 6.00 to 7.00 | 7.00 to 8.00 | 7.00 to 8.00 | 6.00 to 7.00 |
| Cn1cc(-c2cc3nccn3c(-c3cnn(C(CC(N)=O)C4CC4)c3)n2)cn1 (stereo not shown) [Example 63, 3-cyclopropyl-3-(4-(7-(1-methyl-1H-pyrazol-4-yl)imidazo[1,2-c]pyrimidin-5-yl)-1H-pyrazol-1-yl)propanamide] | < 6.00 | 6.00 to 7.00 | 6.00 to 7.00 | < 6.00 |
| CCC(CCCO)n1cc(-c2nc(-c3cnn(C)c3)cc3nccn23)cn1 (stereo not shown) [Example 65, 4-(4-(7-(1-methyl-1H-pyrazol-4-yl)imidazo[1,2-c]pyrimidin-5-yl)-1H-pyrazol-1-yl)hexan-1-ol] | 6.00 to 7.00 | 7.00 to 8.00 | 6.00 to 7.00 | 6.00 to 7.00 |
| Cn1cc(-c2cc3nccn3c(-c3cnn(C(CCF)C4CCCC4)c3)n2)cn1 (stereo not shown) [Example 66, 5-(1-(1-cyclopentyl-3-fluoropropyl)-1H-pyrazol-4-yl)-7-(1-methyl-1H-pyrazol-4-yl)imidazo[1,2-c]pyrimidine] | 6.00 to 7.00 | > 8.00 | 7.00 to 8.00 | 6.00 to 7.00 |

The remaining lines, values ahead:

| pIC50 (JAK3) | pIC50 (Human Tyk2 kinase domain) | pIC50 (JAK2) | pIC50 (JAK1) | SMILES |
| --- | --- | --- | --- | --- |
| 6.00 to 7.00 | > 8.00 | 7.00 to 8.00 | 6.00 to 7.00 | CO[C@H](C)Cn1cc(-c2cc3nccn3c(-c3cnn(C4(CCF)CN(S(=O)(=O)C(F)(F)F)C4)c3)n2)cn1 [Example 59, (R)-5-(1-(3-(2-fluoroethyl)-1-((trifluoromethyl)sulfonyl)azetidin-3-yl)-1H-pyrazol-4-yl)-7-(1-(2-methoxypropyl)-1H-pyrazol-4-yl)imidazo[1,2-c]pyrimidine] |
| 6.00 to 7.00 | > 8.00 | > 8.00 | 7.00 to 8.00 | O=S(=O)(N1CC(CCF)(n2cc(-c3nc(-c4cnn(C5CCOCC5)c4)cc4nccn34)cn2)C1)C(F)(F)F [Example 60, 5-(1-(3-(2-fluoroethyl)-1-((trifluoromethyl)sulfonyl)azetidin-3-yl)-1H-pyrazol-4-yl)-7-(1-(tetrahydro-2H-pyran-4-yl)-1H-pyrazol-4-yl)imidazo[1,2-c]pyrimidine] |
| 6.00 to 7.00 | 7.00 to 8.00 | 7.00 to 8.00 | 6.00 to 7.00 | Cn1cc(-c2cc3nccn3c(-c3cnn(C4(CCF)CN(S(C)(=O)=O)C4)c3)n2)cn1 [Example 64, 5-(1-(3-(2-fluoroethyl)-1-(methylsulfonyl)azetidin-3-yl)-1H-pyrazol-4-yl)-7-(1-methyl-1H-pyrazol-4-yl)imidazo[1,2-c]pyrimidine] |
| < 6.00 | 6.00 to 7.00 | 6.00 to 7.00 | < 6.00 | CCOCCC(C1CCC1)n1cc(-c2nc(-c3cnn(C)c3)cc3nccn23)cn1 (stereo not shown) [Example 67, 5-(1-(1-cyclobutyl-3-ethoxypropyl)-1H-pyrazol-4-yl)-7-(1-methyl-1H-pyrazol-4-yl)imidazo[1,2-c]pyrimidine] |
